In PMC10483525, “Synthesis, Structural Investigations, DNA/BSA Interactions, Molecular Docking Studies, and Anticancer Activity of a New 1,4-Disubstituted 1,2,3-Triazole Derivative” (ACS Omega, 2023):

How the values were obtained:
Test in all cases: MTT assay
Assay type in all cases: cell-based, human
Caco-2 = details: for IC50: Homo sapiens
Experimental: (§1) Human cancer cell lines (MDA-MB-231, LNCaP, Caco-2) and a human healthy cell line (HEK-293) were obtained from the European Collection of Cell Cultures. The cells were incubated in a humidified incubator (37 °C, 5% CO2) and cultured under standard conditions in Dulbecco’s modified Eagle medium (DMEM), 10% heat-inactivated fetal bovine serum, 100 U mL^–1 penicillin, 100 U mL^–1 streptomycin, and 4 mM L-glutamine. […] A cell culture medium was used to make further dilutions, while keeping the equivalent of DMF below 0.5% of the total volume.[94] […]
(§2) 7. Cell Viability Inhibition Assay
MDA-MB-231, LNCaP, Caco-2 and HEK-293 cells (5x10^3 per well) seeded in 96-well plates to assess cell viability by the 3-[4,5-dimethylthiazol-2-yl]-2,5-diphenyltetrazolium bromide (MTT) assay for 24 h at 37°C. Then cells were treated with compound 3 at different concentrations (3-100 µM) at 100μl/well. […]
and etoposid was used as positive controls under identical conditions. After 24, 48 and 72 h incubation, 5 mg/ml MTT solution (20 μl/well) was added and cultured for another 4 h. Then, the supernatant was discarded and dimethyl sulfoxide was added (100 μl/well). The absorbance (A) was measured spectrophotometrically at 540 nm by a Microplate Reader (SpectraMax i3x).
(§3) A graph was plotted between the concentrations of the extract versus the percent viability. The […]
(§4) calculated from graph. All assays were performed in three replicates per concentration level. 11 […]

HEK-293 = test system: HEK-293
Experimental: as §1, §2
(§5) MDA-MB-231, LNCaP, Caco-2 and HEK-293 cells (5x10^3 per well) seeded in 96-well plates to assess cell viability by the 3-[4,5-dimethylthiazol-2-yl]-2,5-diphenyltetrazolium bromide (MTT) assay for 24 h at 37°C. Then cells were treated with compound 3 at different concentrations (3-100 µM) at 100μl/well. In parallel, the traditional anticancer agent cisplatin and etoposid was used as positive controls under identical conditions. After 24, 48 and 72 h incubation, 5 mg/ml MTT solution (20 μl/well) was added and cultured for another 4 h. Then, the supernatant was discarded and dimethyl sulfoxide was added (100 μl/well). The absorbance (A) was measured spectrophotometrically at 540 nm by a Microplate Reader (SpectraMax i3x).
as §3, §4

MDA-MB-231 = test system: MDA-MB-231
Experimental: as §1, §2, §5, §3, §4

LNCaP = details: for IC50: LNCaP
Experimental: as §1, §2, §5, §3, §4

[1] = 48 h, SI = IC50 on normal cells/IC50 on cancer cells

Q: Which results are given for `COc1cc([C@@H]2c3cc4c(cc3[C@@H](O[C@@H]3O[C@@H]5CO[C@@H](C)O[C@H]5[C@H](O)[C@H]3O)[C@H]3COC(=O)[C@H]23)OCO4)cc(OC)c1O` [etoposide]?
A: SI HEK-293/Caco-2 (Caco-2; [1]): 1.1; IC50 (Caco-2; Caco-2, 24 h): 76.27 ± 0.34 µM; IC50 (Caco-2; Caco-2, 48 h): 53.81 ± 0.17 µM; IC50 (Caco-2; Caco-2, 72 h): 17.5 ± 0.26 µM; IC50 (HEK-293; Homo sapiens, HEK293, HEK-293, 24 h): 110.3 ± 0.16 µM; IC50 (HEK-293; Homo sapiens, HEK293, HEK-293, 48 h): 59.2 ± 0.32 µM; IC50 (HEK-293; Homo sapiens, HEK293, HEK-293, 72 h): 51.62 ± 0.48 µM; SI HEK-293/MDA-MB-231 (MDA-MB-231; [1]): 0.94; IC50 (MDA-MB-231; Homo sapiens, MDA-MB-231, 24 h): 85.4 ± 0.74 µM; IC50 (MDA-MB-231; Homo sapiens, MDA-MB-231, 48 h): 63.17 ± 0.05 µM; IC50 (MDA-MB-231; Homo sapiens, MDA-MB-231, 72 h): 24.3 ± 0.44 µM; SI HEK-293/LNCap (LNCaP; [1]): 0.95; IC50 (LNCaP; Homo sapiens, 24 h): 81.47 ± 0.62 µM; IC50 (LNCaP; Homo sapiens, 48 h): 62.02 ± 0.61 µM; IC50 (LNCaP; Homo sapiens, 72 h): 20.79 ± 0.08 µM

Q: How did the IC50 (HEK-293; HEK-293, 24 h) turn out when `N.N.[Cl][Pt][Cl]` [cisplatin] was run?
A: 18.62 ± 0.09 µM

Q: And the IC50 (HEK-293; HEK-293, 48 h)?
A: 4.7 ± 0.01 µM

Q: And the IC50 (HEK-293; HEK-293, 72 h)?
A: 2.43 ± 0.01 µM

Q: And the IC50 (MDA-MB-231; MDA-MB-231, 24 h)?
A: 8.43 ± 0.01 µM

Q: What about the IC50 (MDA-MB-231; MDA-MB-231, 48 h) of the same compound?
A: 2.19 ± 0.02 µM

Q: And the IC50 (MDA-MB-231; MDA-MB-231, 72 h)?
A: 1.78 ± 0.01 µM

Q: What about the IC50 (LNCaP; 24 h) of the same compound?
A: 26.1 ± 0.58 µM

Q: And the IC50 (LNCaP; 48 h)?
A: 25.9 ± 0.48 µM

Q: And the IC50 (LNCaP; 72 h)?
A: 10.3 ± 0.28 µM
